This is an account of results in PMC5986738, “Thiazole Amides, A Novel Class of Algaecides against Freshwater Harmful Algae” (Scientific Reports, 2018).

By melting point is commonly meant the temperature, or range, at which the solid turns liquid. For orientation: IC50 means the concentration at which inhibition is half-maximal.

Converted amounts (≈) assume the structure as drawn. Where only a bound is given, the exact number is not on record here.

The test system of data set [1] is dinoflagellates and raphidophytes. Details: method as in doi:10.1016/j.tetlet.2003.08.115, PMID 17988095. The following applies: cited from earlier work.
Data set [2] relates to C. pyrenoidosa. The data set is described as follows: Algicidal activity (growth inhibition, microplate, absorbance 650 nm) against C. pyrenoidosa. The following applies: 96-hour IC50, mean ± SD; for IC50: Auxenochlorella pyrenoidosa, read-out: IC50 value C. pyrenoidosa. Type of data set: cell-based, Chlorella pyrenoidosa. The procedure: (§1) According to the method established by Schrader et al.[42], algicidal activity of alkaloid (1) and its amide analogues (7–32), as well as their hydrochloric salts (7S–27S), was evaluated against three typical […] algae, S. obliqnus, M. aeruginosa, and C. Pyrenoidosa at different concentrations. After three algae species were inoculated, the variation of algae density over 7 days were recorded continuously. […] The wavelength at 650 nm was determined as ideal incident wavelength for the measurement of algae density. Three […] algae S. obliqnus, M. aeruginosa, and C. pyrenoidosa were offered by Freshwater algae culture collection of the institute of Hydrobiology (FACHB-collection). Each culture for three species was maintained separately in continuous, steady-state growth microplates, which were placed in a growth chamber held at 28 ± 1 °C and illuminated continuously under fluorescent lights at a photon flux density of […]. Absorbance values of each wells were measured by a Packard model Spectra Count microplate photometer.
(§2) Alkaloid (1) and its analogues (7–32), as well as their hydrochloric salts (7S–27S), were dissolved separately in DMSO to provide stock solution concentrations. Initially, each stock solution was aseptically pipetted into the bottom of separate wells (20 μL per well) in a 96-well microplate and the final test concentrations for each sample were 0, 0.78, 1.56, 3.12, 6.25, 12.5, and 25 μg/mL. Wells of control samples contained only unialgal culture. The solution of CuSO4 and Diuron at the same concentration were chose as the reference sample. Each experiment was performed at least three times. Through measuring the area values under the individual growth curves, the inhibitory rate (%) for the individual tested concentration was calculated according to the following equation (1):1 Ii=(Ac−Ai)/[…]×100% • Ii: inhibitory rate of biomass growth by toxicant concentration i (%) • Ac: average area under the growth curve by control sample • Ai: average area under the growth curve by test concentration i
(§3) Mean values of 96-hour IC50 were determined for each group of plates, and standard deviation were calculated and reported as the mean ± SD.
(§4) The IC50 values of all compounds against three freshwater algae species were calculated using SPSS v19.0, and the algicidal activities of alkaloid (1) and its amide analogues (7–32), as well as the corresponding hydrochloric salts (7S–27S) are listed in Table 1 and 2, respectively.

The subject of data set [3] is M. aeruginosa. Briefly: Algicidal activity (growth inhibition, microplate, absorbance 650 nm) against M. aeruginosa. Type of data set: cell-based. The conditions noted are these: for IC50: Microcystis aeruginosa, read-out: IC50 value M. aeruginosa; for IC50 / IC50 value M. aeruginosa: 96-hour IC50, mean ± SD; for growth inhibitory ratio: 3.13 μg/mL. The procedure:
as §1, §2, §3, §4
Currently, M. aeruginosa appears to be the most harmful algae existing in the freshwater bodies in the developing countries. To investigate growth inhibitory potential of this class of thiazole amides on M. aeruginosa, thiazole amide (10) and its hydrochloric acid salt (10S) were subject to further survey for the optimal inhibition time and concentration (Figs 3 and 4). […] The variation of growth inhibitory ratios of compounds (10) and (10S) against M. aeruginosa at the lowest complete inhibition concentration is illustrated in Fig. 4. As observed, for administration of thiazole amide (10), the growth inhibitory ratios after 96 and 120 hours increase gradually to 79% and 92%, respectively. Under the same experimental conditions, growth inhibitory ratios for the salt (10S) are 82% and 88%, respectively.

In data set [4] the test system is Echinochloa crusgalli. Briefly: Herbicidal activity against terrestrial plant E. crusgalli. Type of data set: in vivo. The following applies: n.a.: no activity. The protocol:
(§5) Toxicity of this class of thiazole amides towards non-target organisms, such as higher plants and fishes, was evaluated preliminarily using compound (10) as a representative sample. Herbicidal activity of compound (10) against two terrestrial plants, Brassica campestris and Echinochloa crusgalli, and two aquatic plants, Ceratophyllum demersum L and Hydrilla verticillata, was evaluated at a concentration of 500 mg/L using a previously reported method. In addition, toxicity of compound (10) toward fish Barchydanio rerio var was also tested at the concentrations of 200 mg/L and 100 mg/L, respectively.

The subject of data set [5] is S. obliqnus. Briefly: Algicidal activity (growth inhibition, microplate, absorbance 650 nm) against S. obliqnus. Type of data set: cell-based. The conditions noted are these: for algicidal activity, times higher than CuSO4 and Diuron: S. obliqnus, from IC50 values; for IC50: 96 h, read-out: IC50 value S. obliqnus; for IC50 / IC50 value S. obliqnus: 96-hour IC50, mean ± SD. The procedure: as §1, §2, §3, §4

Data set [6] deals with Brassica campestris. Briefly: Herbicidal activity against terrestrial plant B. campestris. Type of data set: in vivo. The following applies: n.a.: no activity. The protocol: as §5
The test system of data set [7] is Ceratophyllum demersum L. The data set is described as follows: Herbicidal activity against aquatic plant C. demersum L. Type of data set: in vivo. The following applies: n.a.: no activity. The protocol: as §5
The test system of data set [8] is Barchydanio rerio var. Briefly: Toxicity toward fish. Type of data set: in vivo. The following applies: for Survival ratio in 7 days: fish. The protocol: as §5
Data set [9] concerns Hydrilla verticillata. The data set is described as follows: Herbicidal activity against aquatic plant H. verticillata. Type of data set: in vivo. The following applies: n.a.: no activity. The protocol: as §5
On the set-up of data set [10]: method as in PMID 16468755, PMID 16378379. The following applies: Synechococcus obliqnus; cited from earlier work.
Data set [11] concerns Microcystis aeruginosa. Also on record: method as in PMID 16468755, PMID 16378379. The conditions noted are these: cited from earlier work.
For data set [12], the system named is Kirchneriella contorta. Details: method as in PMID 16468755, PMID 16378379. The conditions noted are these: cited from earlier work.

Take `CC(=O)c1nc(C(=O)NCCc2c[nH]c3ccccc23)cs1` [bacillamide A]: the “antibiotic activity (in words)” value in [1] is “potent antibiotic activity”.
`C[C@H](N)c1nc(C(=O)Nc2ccccc2)cs1` [compound 7] returned a melting point of 117 to 122 °C. Besides, the IC50 in [2] came to 4.61 ± 0.45 µg/mL (≈ 18.6 µM). Besides, in [3], the IC50 is 11.2 ± 1.12 µg/mL (≈ 45.1 µM).
In the case of `C[C@H](N)c1nc(C(=O)Nc2ccc(Br)cc2)cs1` [compound 10], the “Herbicidal activity (500 mg/L) E. crusalli” value in data set [4] is “none-toxic”. The “algicidal activity, times higher than CuSO4 and Diuron” value in [5] was “more than 10 times”. Further, in [6], the “Herbicidal activity (500 mg/L) B. campestris” value is on record as “none-toxic”. The “Herbicidal activity (500 mg/L) C. demersum L.” value in [7] is recorded as “none-toxic”. Further, the “toxicity toward fish (in words)” value in data set [8] (100 and 200 mg/L) was “safe”. Also, the “Survival ratio in 7 days” value in [8] (dosage 100 mg/L) and in data set [8] (dosage 200 mg/L) was 100% throughout. Moreover, the IC50 came out at 1.52 ± 0.05 µg/mL (≈ 4.66 µM) in [2] and 1.51 ± 0.11 µg/mL (≈ 4.63 µM) in [3]. Further, the values for the growth inhibitory ratio in data set [3] (after 96 hours) and in data set [3] (after 120 hours) were 79% and 92%, respectively. For the same molecule, the “Herbicidal activity (500 mg/L) H. verticillata” value in data set [9] is “none-toxic”.
Turning to `COc1ccc(NC(=O)c2csc([C@H](C)N)n2)cc1` [compound 12], the melting point is 126 to 127 °C. The “algicidal activity, times higher than CuSO4 and Diuron” value in data set [5] is “more than 10 times”. In addition, in data set [2], the IC50 came to 17.4 ± 0.92 µg/mL (≈ 62.6 µM). In addition, the IC50 in data set [3] stood at 2.35 ± 0.91 µg/mL (≈ 8.47 µM).
The molecule `C[C@H](N)c1nc(C(=O)Nc2cccc(Cl)c2)cs1` [compound 14] came in with a melting point of 155 to 159 °C. In addition, the IC50 in data set [5] amounted to 1.52 ± 0.12 µg/mL (≈ 5.39 µM). In data set [2], the IC50 worked out at 4.37 ± 0.14 µg/mL (≈ 15.5 µM). Also, the IC50 in data set [3] worked out at 5.19 ± 0.19 µg/mL (≈ 18.4 µM).
Molecule `Cc1cccc(NC(=O)c2csc([C@H](C)N)n2)c1` [compound 16] yielded a melting point of 135 to 137 °C. For the same molecule, the concentration for half-maximal inhibition (IC50) in [5] is 2.86 ± 0.14 µg/mL (≈ 10.9 µM). For the same molecule, in data set [2], the IC50 turned out to be 7.18 ± 0.05 µg/mL (≈ 27.5 µM). For the same molecule, the IC50 in data set [3] stood at 24.2 ± 3.12 µg/mL (≈ 92.4 µM).
Consider `COc1ccccc1NC(=O)c1csc([C@H](C)N)n1` [compound 22], for which the melting point is 82 to 84 °C. Besides, the IC50 in data set [5] is under 1 µg/mL. Also, the 50% inhibitory concentration (IC50) in data set [2] is 2.19 ± 0.71 µg/mL (≈ 7.9 µM). Besides, in data set [3], the IC50 was 3.12 ± 0.56 µg/mL (≈ 11.2 µM).
The like results for `CC(=O)c1ccc(NC(=O)c2csc([C@H](C)N)n2)cc1` [compound 27] were, in that order, 139 to 141 °C, 4.73 ± 0.54 µg/mL (≈ 16.3 µM), 2.84 ± 0.23 µg/mL (≈ 9.81 µM) and 2.33 ± 0.32 µg/mL (≈ 8.05 µM).
As for `CC(N)c1nc(C(=O)Nc2ccccn2)cs1` (centres unmarked) [compound 28], the “IC50 value S. obliqnus” value in [5] stood at 3.97 ± 0.17 µg/mL (≈ 16 µM). Further, in [2], the “IC50 value C. pyrenoidosa” value is 14.76 ± 1.26 µg/mL (≈ 59.4 µM). The “IC50 value M. aeruginosa” value in [3] was determined as 3.09 ± 0.15 µg/mL (≈ 12.4 µM).
Turning to `C[C@H](N)c1nc(C(=O)NC(C)(C)C)cs1` [compound 29], the half-maximal inhibitory concentration (IC50) is 6.23 ± 0.98 µg/mL (≈ 27.4 µM) in data set [5], 3.46 ± 0.67 µg/mL (≈ 15.2 µM) in data set [2] and 5.31 ± 0.45 µg/mL (≈ 23.4 µM) in data set [3].
In turn, `CCCCNC(=O)c1csc([C@H](C)N)n1` [compound 30] displayed a melting point of 109 to 111 °C. For the same molecule, in data set [5], the 50% inhibitory concentration (IC50) turned out to be 5.23 ± 0.36 µg/mL (≈ 23 µM). Moreover, the IC50 in data set [2] was determined as 4.65 ± 0.25 µg/mL (≈ 20.5 µM). Besides, the half-maximal inhibitory concentration (IC50) in data set [3] was found to be 5.47 ± 0.41 µg/mL (≈ 24.1 µM).
Take `C[C@H](N)c1nc(C(=O)NCCc2ccccc2)cs1` [compound 31]: the IC50 in data set [5] was 5.98 ± 0.49 µg/mL (≈ 21.7 µM); in data set [2] it was 2.84 ± 0.56 µg/mL (≈ 10.3 µM); in [3] it was 57.5 ± 6.26 µg/mL (≈ 209 µM).
As to `C[C@H](N)c1nc(C(=O)NCc2ccccc2)cs1` [compound 32], the melting point was in the range of 64 to 67 °C. In [5], the 50% inhibitory concentration (IC50) was found to be 100.2 ± 0.34 µg/mL (≈ 383 µM). Besides, the IC50 in data set [2] is 4.16 ± 0.88 µg/mL (≈ 15.9 µM). In data set [3], the half-inhibitory concentration (IC50) was 9.48 ± 1.08 µg/mL (≈ 36.3 µM).
For the molecule `C[n+]1ccc2c(c1)[nH]c1ccc(Cl)cc12` [nostocarboline], the half-maximal inhibitory concentration (IC50) in [10] is 5.8 µM; in data set [11], 2.1 µM; in data set [12] it was 29.1 µM.
As for “N-(2-(1H-indol-3-yl)ethyl)-2-acetylthiazole-4-carboxamide [Alkaloid (1)]”, the “IC50 value S. obliqnus” value in [5] was 14.33 ± 1.15 µg/mL. Besides, the “IC50 value C. pyrenoidosa” value in [2] was 381.57 ± 5.16 µg/mL. Moreover, in data set [3], the “IC50 value M. aeruginosa” value turned out to be 114.60 ± 3.35 µg/mL.
